The subject of one data set is PC 12 cell line. In words: Cytotoxicity assay (CCK-8) on PC 12. The format is cell-based, rat. Conditions: 20 μM. The protocol:
RAW264.7 cells were cultured in 96-well plates at a density of 3 × 10^4 cells/mL in Dulbecco’s modified Eagle’s medium (DMEM, Gibco, Baltimore, MD, USA) with 10% fetal calf serum (Gibco, Baltimore, MD, USA), 100 U/mL penicillin, and 100 μg/mL streptomycin. Plates were incubated in an atmosphere containing 5% CO2 at […]. PC 12 cells were cultured in 96-well plates at a density of 8000 cells/mL in Dulbecco’s modified Eagle’s medium (DMEM, Gibco, Baltimore, MD, USA) with 10% fetal calf serum (Gibco, Baltimore, MD, USA), 100 U/mL penicillin, and 100 μg/mL streptomycin. Plates were incubated in an atmosphere containing 5% CO2 at 37 °C. Cells were treated with different concentrations of test compounds for 48 h. Then, 10 μL CCK-8 solution were added to all the wells. After 4 h incubation, the absorbance at 450 nm of each well was measured in a multiscan photometer.

Data set [1] relates to LPS-stimulated RAW264.7 cell lines. In words: LPS-induced NO production (Griess) in RAW264.7. The format is cell-based, murine. The note with it: for The production of NO: LPS-stimulated RAW264.7, LPS group 49.86 ± 0.62, control 1.20 ± 0.38. The procedure, abridged: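 RAW 264.7 murine macrophages were seeded at 1 × 10^4 cells/well in 96-well plates and cultured overnight at 37 °C with 5% CO2, with dexamethasone as positive control. After 24 h, nitrite in 50 μL of supernatant was quantified by sequential 5-min room-temperature incubations with 50 μL Griess reagent A and then reagent B, reading absorbance at 540 nm.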

For a further data set, the system named is PC 12 cell lines. In words: Radiation protection in vitro (CCK-8). The data set is classed as cell-based, rat. The note with it: for viability at 5 µM / viability at 10 µM / viability at 20 µM: Rattus norvegicus, radiation 8.0 Gy, PC 12, radiation group 50.22 ± 1.08; for viability at 5 µM: PC-12, Dose 5 μM; for viability at 10 µM: PC-12, Dose 10 μM; for viability at 20 µM: PC-12, Dose 20 μM. As to the method:
The rat adrenal pheochromocytoma cells (PC 12) were used for in vitro studies. A Cell Counting Kit-8 (CCK-8, Applygen Technologies Co., Ltd., Beijing, China) assay was used to determine cell viability. […] Cells were irradiated with dose of 8.0 Gy at a dose rate of 0.8 Gy/min. Then, 10 μL CCK-8 solution was added to all the wells. After 4 h incubation, the absorbance at 450 nm of each well was measured in a multiscan photometer.

Data set [2] in a line: Aqueous solubility determination by UV spectrophotometer. The format is physicochemical. The note with it: water, thermodynamic from solid, saturated solution concentration. As to the method: A UV spectrophotometer was used to test the aqueous solubility of target compounds. Each compound to be tested was prepared into solutions with concentrations of 0.2 M, 0.1 M, 0.05 M, 0.025 M, 0.0125 M, 0.00625 M, and 0.003125 M. The optical density (OD) values of the prepared solutions were measured using an ultraviolet spectrophotometer, and concentration–OD-value standard curves were drawn for each compound to be tested. The saturated solutions of the target compounds were diluted by 5000 times and detected using an ultraviolet spectrophotometer to measure the OD values, respectively. The measured OD values were substituted into the corresponding concentration-OD value standard curve to calculate the diluted concentrations, which were multiplied by 5000 to obtain the saturated solution concentrations of the target compounds.

The subject of data set [3] is H2O2-stimulated PC 12 cell lines. In words: Protection against H2O2-induced oxidative damage (CCK-8). The format is cell-based, rat. The note with it: H2O2-induced oxidative damage, PC 12, H2O2 group 49.69 ± 1.37, control 100; for Cell viability: in % (unit assumed). A digest of the protocol:
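Rat PC 12 cells were plated in 96-well plates at 8000 cells/well and left to grow overnight. After a further 24 h incubation under the same conditions, each well received 10 μL CCK-8 solution. Following 2 h of incubation, absorbance at 450 nm was read on a microplate reader to measure cell viability.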

For data set [4] the following is noted: cited from earlier work.

≈ marks a conversion by molar mass, not a printed value.

With `COc1cc(/C=C/C(=O)CC(=O)/C=C/c2ccc(OC)c(OC)c2OC)cc(CN(C)C)c1O` [Compound 6a], in the data set on PC 12 cell line, the “effect on PC 12 cell proliferation” value is reported as “significant promoting effect”. In addition, the “inhibitory activity against NO production compared with curcumin” value in data set [1] (10 μM) is recorded as “better inhibitory activity”. The figures for the “The production of NO” value in data set [1] (Dose 5 μM), in data set [1] (Dose 10 μM) and in data set [1] (Dose 15 μM) were 27.02 ± 2.91, 14.29 ± 1.71 and 5.23 ± 0.72, respectively. Moreover, the “radiation protection capability compared with curcumin” value with PC 12 cell lines (10 μM, irradiated PC 12) is reported as “better radiation protection capability”. Further, the radiation protection capacity result with PC 12 cell lines (10 μM, versus radiation group) is given as “a certain degree of radiation protection capacity”. In addition, the viability at 5 µM in the data set with PC 12 cell lines amounted to 65.6 ± 2.17%. Moreover, in the data set on PC 12 cell lines, the viability at 10 µM is 71.7 ± 2.56%. The compound also had a viability at 20 µM in the data set on PC 12 cell lines of 84.9 ± 6.57%. In data set [2], this compound displayed a solubility of 112 mg/mL (≈ 239 mM). Further, the figures for the Cell viability in data set [3] (Dose 5 μM), in data set [3] (Dose 10 μM) and in data set [3] (Dose 20 μM) were 60.05 ± 5.39, 76.41 ± 2.29 and 100.96 ± 1.07, respectively.

For `COc1cc(/C=C/C(=O)CC(=O)/C=C/c2ccc(O)c(OC)c2)ccc1O` [Curcumin, curcumin, reference compound], the aqueous solubility in data set [4] is given as < 0.1 mg/mL. For the same compound, the “The production of NO” value in data set [1] (Dose 5 μM) was determined as 37.00 ± 1.12; in data set [1] (Dose 10 μM) it was 21.55 ± 1.29; in data set [1] (Dose 15 μM), 5.96 ± 0.03. Further, the viability at 5 µM in the data set with PC 12 cell lines worked out at 55.1 ± 1.37%; in data set [3] (Rattus norvegicus, PC-12, Dose 5 μM), 59.6 ± 2.21%. Further, the viability at 10 µM in the data set on PC 12 cell lines came out at 59.39 ± 0.57%; in data set [3] (Rattus norvegicus, PC-12, Dose 10 μM), 71.8 ± 1.52%. In addition, the viability at 20 µM in the data set on PC 12 cell lines is 75.47 ± 0.68%; in data set [3] (Rattus norvegicus, PC-12, Dose 20 μM), 86.4 ± 1.28%.

Values taken from PMC11085442 (Molecules, 2024).
